Source: US20130240456A1, “DEVICE AND METHOD FOR LABEL-FREE SEPARATION OF MATERIAL USING MAGNETIC FIELD” (THE GOVERNING COUNCIL OF THE UNIVERSITY OF TORONTO, priority 2012, published 2013)

Columns and labels:
myoglobin [1] = target: myoglobin (Mus musculus, UniProt P04247); conditions: 2.5 mM NaNO2, ratio of absorbance 635 nm/525 nm
Experimental: (§1) UV-vis measurements were made in cells lysed with NP40 Lysis Buffer, for 30 min on ice, with cell debris spun down at 13000 rpm for 10 min at 4° C. […] ND-1000 Nanodrop spectrophotometer (from Nanodrop Technologies, Inc., Wilmington, Del., USA) was used to collect absorption spectra from 200-700 nm.

myoglobin [2] = target: myoglobin (Rattus norvegicus, UniProt Q9QZ76)
Experimental: as §1

neonatal rat CM [3] = conditions: horizontal device study
Experimental: Cell viability was determined immediately after treatment. In addition, the cells were cultivated in 3D for 7 days as described below.
Live/dead staining was performed by incubating the cells or constructs in a solution of carboxyfluorescein diacetate-succinimidyl ester (CFDA-SE, 10 μM, from Molecular Probes) and propidium iodide (PI, 2.5 μg/mL, from Molecular Probes) for 30-45 minutes at 37° C., according to the manufacturer's protocol (from Molecular Probes, Burlington, Canada). The cells were imaged using a fluorescent microscope (Leica DMIRE2, from Wetzlar, Germany). […] Following treatment, the cells were washed in HBSS, and incubated for 5 hrs in 37° C./5% CO2 incubator. Non-viable cells with compromised cell membranes could be identified by red fluorescence due to binding of PI to their nuclei, while viable cells converted CFDA-SE to the green fluorescent dye […] by esterase-mediated cleavage.
Live/dead staining was performed by incubating the cells or constructs in a solution of carboxyfluorescein diacetate-succinimidyl ester (CFDA-SE, 10 μM, from Molecular Probes) and propidium iodide (PI, 2.5 μg/mL, from Molecular Probes) for 30-45 minutes at 37° C., according to the manufacturer's protocol (from Molecular Probes, Burlington, Canada). The cells were imaged using a fluorescent microscope (Leica DMIRE2, from Wetzlar, Germany). […]

neonatal rat CM [4] = conditions: constructs of treated and control cells, no significant differences
Experimental: Contractile properties of CMs were measured by field stimulation in an electrical stimulation chamber consisting of two parallel carbon electrodes spaced 1 cm apart as described in [24]. Stimulation was provided by an external electric stimulator (Grass s88x). Using monophasic pulses of 2 ms duration and frequency of 1 pulse per second, the excitation threshold (minimum voltage at which synchronous contractions of 75% of the tissue in the field of view can be observed) was first determined. Then the maximum capture rate (maximum beating frequency) was determined at 200% of the determined excitation threshold voltage.

adult mouse CM = conditions: 2.5 mM NaNO2, versus untreated, unseparated control
Experimental: Adult mouse CMs were isolated and suspended in Kraft Bruhe (KB) solution at 4° C. The KB solution consisted of 120 mM K-glutamate, 10 mM KCl, 10 mM KH2PO4, 2 mM MgSO4.7H2O, 10 mM Taurine, 5 mM Creatine, 10 mM HEPES, 10 mM Glucose, 0.5 mM EGTA, 0.10% Bovine Serum Albumin (BSA) and a final pH of 7.3 adjusted with KOH. The adult mouse CMs in KB solution were then split into three groups. Each of these three KB solutions containing adult mouse CMs was then further split into four groups; in total, 12 groups of adult mouse CMs in KB solution were maintained at 4° C. and allowed to settle to the bottom of Eppendorf tubes.
The Eppendorf containing KB Solution and adult mouse CMs was left untouched. The other three Eppendorf tubes had the KB solution removed. […] The four Eppendorf tubes were then returned to 4° C. environment to allow the cells settle.
The other three Eppendorf tubes containing adult mouse CMs in the three other solutions were left at room temperature while the device was running.
At the end of the sorting process, each of the Eppendorf tubes that had been sitting at room temperature were equally split into 24-well plate wells. The sorted run was emptied into one well. An equal volume of trypan blue was added to each well. After a minute, 1 mL of either KB or HBSS and 30% FBS was added to each of the wells depending on the group. […]

myoglobin (Rattus norvegicus, UniProt Q9QZ76), sequence (Q9QZ76 whole entry): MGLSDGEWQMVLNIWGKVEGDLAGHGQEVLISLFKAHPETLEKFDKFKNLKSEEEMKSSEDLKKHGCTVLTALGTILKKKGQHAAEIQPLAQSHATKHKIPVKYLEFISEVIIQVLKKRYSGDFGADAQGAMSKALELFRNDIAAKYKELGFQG
myoglobin (Mus musculus, UniProt P04247), sequence (P04247 whole entry): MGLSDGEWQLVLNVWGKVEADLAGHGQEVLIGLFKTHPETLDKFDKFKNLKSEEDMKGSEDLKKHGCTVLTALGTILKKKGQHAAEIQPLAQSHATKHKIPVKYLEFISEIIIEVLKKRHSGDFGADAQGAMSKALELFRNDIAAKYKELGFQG

Compound: O=NO [NaNO2, sodium nitrite]
- time of maximum metmyoglobin induction after nitrite was introduced (myoglobin [1]): about 45 min
- conversion of Mb to metMb (myoglobin [2]; 50 mM NaNO2, 30 min, referencing to the 1 hr time point): 92±3.5%
- time at which metMb induction reached the equilibrium value (myoglobin [2]; 50 mM NaNO2, transient study): 30 min
- semi-quantitative fold conversion to metMb (myoglobin [2]; 50 mM NaNO2, transient study, stabilized value): about 10 times the initial metMb amount
- viability of CMs after treatment with NaNO2 (FIGS. 23A and 23B) (neonatal rat CM [3]): unaffected
- excitation threshold (ET) (neonatal rat CM [4]): about 4.5±1.3 V/cm
- maximum capture rate (MCR) (neonatal rat CM [4]): about 8.3±1.0 pps
- viability of adult mouse CM after separation and subsequent culture for 24 hr (adult mouse CM): not compromised
